For 25 compounds, logP and logD results are on record in the SangsterLogP compilation.

The nature of this data set: method code SF-AS, from PMID: 594121. The following applies: for logD: pH 7.4.

As usually defined, the logP is a log measure of how a compound divides between an organic and an aqueous phase. A high value points to higher lipophilicity. `Cc1cccc(NC(=O)CN2CCCCC2)c1`: the logP is 2.97.
Still for that read-out and setting: under `O=C(CN1CCCCC1)Nc1ccccc1C(F)(F)F` stands 3.09; under `O=C(CN1CCCCC1)Nc1ccccc1Br`, 2.94.
Compound `CCOc1cccc(NC(=O)CN2CCCCC2)c1` came in with a logP of 3.17.
The term logD denotes lipophilicity at a set pH, counting ionised and neutral species. A low value points to lower lipophilicity. In turn, `O=C(CN1CCCCC1)Nc1ccc([N+](=O)[O-])cc1` gave a logD of 2.25.
Turning to `O=C(CN1CCCCC1)Nc1ccccc1F`, the logP was 2.16.
As for `O=C(CN1CCCCC1)Nc1cccc(F)c1`, the logP turned out to be 2.85.
Compound `COc1ccccc1NC(=O)CN1CCCCC1` displayed a logP of 2.85.
The same measure, in the same setting: the result for `Cc1ccccc1NC(=O)CN1CCCCC1` reads 2.26.
The compound `O=C(CN1CCCCC1)Nc1ccc(Br)cc1` displayed a logD of 2.88.
`O=C(CN1CCCCC1)Nc1cccc(Cl)c1` showed a logP of 3.45.
The compound `CCOc1ccc(NC(=O)CN2CCCCC2)cc1` displayed a logD of 2.82.
`O=C(CN1CCCCC1)Nc1ccccc1Cl` gave a logP of 2.76.
Still for that read-out and setting: under `O=C(CN1CCCCC1)Nc1ccccc1[N+](=O)[O-]` stands 2.75; under `Cc1ccc(NC(=O)CN2CCCCC2)cc1`, 2.95.
The compound `O=C(CN1CCCCC1)Nc1ccccc1` displayed a logD of 2.41.
`O=C(CN1CCCCC1)Nc1cccc(C(F)(F)F)c1` gave a logP of 3.12.
`CCOc1ccccc1NC(=O)CN1CCCCC1` displayed a logP of 3.04.
For `O=C(CN1CCCCC1)Nc1cccc([N+](=O)[O-])c1`, the lipophilicity (logP) turned out to be 2.59.
The same measure, in the same setting: under `O=C(CN1CCCCC1)Nc1ccc(F)cc1` stands 2.7; under `O=C(CN1CCCCC1)Nc1ccc(C(F)(F)F)cc1`, 3.06.
Turning to `O=C(CN1CCCCC1)Nc1cccc(I)c1`, the logD was 3.23.
Still for that read-out and setting: under `O=C(CN1CCCCC1)Nc1ccc(I)cc1` stands 3.21; under `O=C(CN1CCCCC1)Nc1cccc(Br)c1`, 2.93.
As for `COc1cccc(NC(=O)CN2CCCCC2)c1`, the logP stood at 2.71.
